{
  "source": "patent US11325955B2",
  "about": "“Stabilized anti-microbial peptides for the treatment of antibiotic-resistant bacterial infections” (priority 2017, dated 2022)",
  "type_in_all_cases": "cell-based",
  "key": {"B cereus": {"system": "B cereus", "protocol": "(§1) The following microbroth dilution protocol was adapted to determine the minimum inhibitory concentration (MIC) of each peptide. First, Mueller-Hinton broth (MHB) was passed through an anion exchange column to remove polyanionic species and generate refined MHB. […] Briefly, bacterial cells were grown overnight in refined MHB at 37° C. and then diluted and allowed to grow again for several hours. Serial dilutions of peptide stocks in water (10 μl) were prepared using clear round-bottom polypropylene 96-well plates. Then 90 μl of bacteria in refined MHB was added to give a final inoculum of 5×10^5 CFU/ml. The plates were then covered with porous tape to reduce evaporation, and incubated for 20-24 hours at 37° C. The MIC is the minimum peptide concentration at which no visible growth was observed."}, "S aureus": {"system": "S aureus", "protocol": "as §1"}, "P aeruginosa": {"system": "P aeruginosa", "protocol": "as §1"}, "E coli": {"system": "E coli", "protocol": "as §1"}},
  "note": "Positions of bridges follow the written chain, without caps; N, C: chain ends. Non-standard residues stand in square brackets, D forms with d. Residues, ends and D or L forms follow the SMILES beside them. S5 = C=CCCC[C@](C)(N)C(=O)O; Nle = CCCC[C@H](N)C(=O)O",
  "data": [
    {"smiles": "CCCC[C@H](NC(=O)[C@]1(C)CCCC=CCCC[C@](C)(NC(=O)[C@H](C)NC(=O)[C@H](CCCCN)NC(=O)CNC(=O)[C@H](Cc2ccccc2)NC(=O)[C@H](CCCCN)NC(=O)[C@H](Cc2c[nH]cn2)NC(=O)[C@H](CCCCN)NC(=O)[C@H](CO)NC(=O)[C@H](Cc2c[nH]cn2)NC(=O)[C@]2(C)CCCC=CCCC[C@](C)(NC(=O)CN)C(=O)NCC(=O)N[C@@H](Cc3c[nH]cn3)C(=O)N[C@@H](Cc3ccccc3)C(=O)N2)C(=O)N[C@@H](C(C)C)C(=O)NCC(=O)N[C@@H](CCC(=O)O)C(=O)N1)C(=O)N[C@@H](CC(N)=O)C(=O)N[C@@H](CO)C(N)=O", "note": "[Mag(i+4)1,15(A9K, K4H, K10H), GXGHFXHSKHKFGKAXVGEXBNS] (H-G[S5]GHF[S5]HSKHKFGKA[S5]VGE[S5][Nle]NS-NH2; staple 2-6, 16-20)", "values": [
      {"measurement": "MIC B cereus", "setting": "B cereus", "result": 50, "unit": "µg/mL"},
      {"measurement": "MIC S aureus", "setting": "S aureus", "result": ">50", "unit": "µg/mL"},
      {"measurement": "MIC P aeruginosa", "setting": "P aeruginosa", "result": 50, "unit": "µg/mL"},
      {"measurement": "MIC E coli", "setting": "E coli", "result": 3.1, "unit": "µg/mL"}
    ]},
    {"smiles": "CCCC[C@H](NC(=O)[C@]1(C)CCCC=CCCC[C@](C)(NC(=O)[C@H](C)NC(=O)[C@H](CCCCN)NC(=O)CNC(=O)[C@H](Cc2ccccc2)NC(=O)[C@H](Cc2c[nH]cn2)NC(=O)[C@H](Cc2c[nH]cn2)NC(=O)[C@H](CCCCN)NC(=O)[C@H](CO)NC(=O)[C@H](Cc2c[nH]cn2)NC(=O)[C@]2(C)CCCC=CCCC[C@](C)(NC(=O)CN)C(=O)NCC(=O)N[C@@H](Cc3c[nH]cn3)C(=O)N[C@@H](Cc3ccccc3)C(=O)N2)C(=O)N[C@@H](C(C)C)C(=O)NCC(=O)N[C@@H](CCC(=O)O)C(=O)N1)C(=O)N[C@@H](CC(N)=O)C(=O)N[C@@H](CO)C(N)=O", "note": "[Mag(i+4)1,15(A9K, K4H, K10H, K11H), GXGHFXHSKHHFGKAXVGEXBNS] (H-G[S5]GHF[S5]HSKHHFGKA[S5]VGE[S5][Nle]NS-NH2; staple 2-6, 16-20)", "values": [
      {"measurement": "MIC B cereus", "setting": "B cereus", "result": ">50", "unit": "µg/mL"},
      {"measurement": "MIC S aureus", "setting": "S aureus", "result": ">50", "unit": "µg/mL"},
      {"measurement": "MIC P aeruginosa", "setting": "P aeruginosa", "result": 50, "unit": "µg/mL"},
      {"measurement": "MIC E coli", "setting": "E coli", "result": 17.7, "unit": "µg/mL"}
    ]},
    {"smiles": "CCCC[C@H](NC(=O)[C@]1(C)CCCC=CCCC[C@](C)(NC(=O)[C@H](C)NC(=O)[C@H](CCCCN)NC(=O)CNC(=O)[C@H](Cc2ccccc2)NC(=O)[C@H](CCCCN)NC(=O)[C@H](CCCNC(=N)N)NC(=O)[C@H](CCCCN)NC(=O)[C@H](CO)NC(=O)[C@H](Cc2c[nH]cn2)NC(=O)[C@]2(C)CCCC=CCCC[C@](C)(NC(=O)CN)C(=O)NCC(=O)N[C@@H](CCCNC(=N)N)C(=O)N[C@@H](Cc3ccccc3)C(=O)N2)C(=O)N[C@@H](C(C)C)C(=O)NCC(=O)N[C@@H](CCC(=O)O)C(=O)N1)C(=O)N[C@@H](CC(N)=O)C(=O)N[C@@H](CO)C(N)=O", "note": "[Mag(i+4)1,15(A9K, K4R, K10R), GXGRFXHSKRKFGKAXVGEXBNS] (H-G[S5]GRF[S5]HSKRKFGKA[S5]VGE[S5][Nle]NS-NH2; staple 2-6, 16-20)", "values": [
      {"measurement": "MIC B cereus", "setting": "B cereus", "result": 12.5, "unit": "µg/mL"},
      {"measurement": "MIC S aureus", "setting": "S aureus", "result": ">50", "unit": "µg/mL"},
      {"measurement": "MIC P aeruginosa", "setting": "P aeruginosa", "result": 6.2, "unit": "µg/mL"},
      {"measurement": "MIC E coli", "setting": "E coli", "result": 3.1, "unit": "µg/mL"}
    ]},
    {"smiles": "CCCC[C@H](NC(=O)[C@]1(C)CCCC=CCCC[C@](C)(NC(=O)[C@H](C)NC(=O)[C@H](CCCCN)NC(=O)CNC(=O)[C@H](Cc2ccccc2)NC(=O)[C@H](CCCCN)NC(=O)[C@H](CCCCN)NC(=O)[C@H](CCCCN)NC(=O)[C@H](CO)NC(=O)[C@H](Cc2c[nH]cn2)NC(=O)[C@]2(C)CCCC=CCCC[C@](C)(NC(=O)CN)C(=O)NCC(=O)N[C@@H](Cc3c[nH]cn3)C(=O)N[C@@H](Cc3ccccc3)C(=O)N2)C(=O)N[C@@H](C(C)C)C(=O)NCC(=O)N[C@@H](CCC(=O)O)C(=O)N1)C(=O)N[C@@H](CC(N)=O)C(=O)N[C@@H](CO)C(N)=O", "note": "[Mag(i+4)1,15(A9K, K4H), GXGHFXHSKKKFGKAXVGEXBNS] (H-G[S5]GHF[S5]HSKKKFGKA[S5]VGE[S5][Nle]NS-NH2; staple 2-6, 16-20; N-terminus and C-terminus assumed)", "values": [
      {"measurement": "MIC B cereus", "setting": "B cereus", "result": 25, "unit": "µg/mL"},
      {"measurement": "MIC S aureus", "setting": "S aureus", "result": ">50", "unit": "µg/mL"},
      {"measurement": "MIC P aeruginosa", "setting": "P aeruginosa", "result": 6.2, "unit": "µg/mL"},
      {"measurement": "MIC E coli", "setting": "E coli", "result": 3.1, "unit": "µg/mL"}
    ]},
    {"smiles": "CCCC[C@H](NC(=O)[C@]1(C)CCCC=CCCC[C@](C)(NC(=O)[C@H](C)NC(=O)[C@H](CCCCN)NC(=O)CNC(=O)[C@H](Cc2ccccc2)NC(=O)[C@H](CCCCN)NC(=O)[C@H](CCCCN)NC(=O)[C@H](CCCCN)NC(=O)[C@H](CO)NC(=O)[C@H](Cc2c[nH]cn2)NC(=O)[C@]2(C)CCCC=CCCC[C@](C)(NC(=O)CN)C(=O)NCC(=O)N[C@@H](CCCNC(=N)N)C(=O)N[C@@H](Cc3ccccc3)C(=O)N2)C(=O)N[C@@H](C(C)C)C(=O)NCC(=O)N[C@@H](CCC(=O)O)C(=O)N1)C(=O)N[C@@H](CC(N)=O)C(=O)N[C@@H](CO)C(N)=O", "note": "[Mag(i+4)1,15(A9K, K4R), GXGRFXHSKKKFGKAXVGEXBNS] (H-G[S5]GRF[S5]HSKKKFGKA[S5]VGE[S5][Nle]NS-NH2; staple 2-6, 16-20; N-terminus and C-terminus assumed)", "values": [
      {"measurement": "MIC B cereus", "setting": "B cereus", "result": 12.5, "unit": "µg/mL"},
      {"measurement": "MIC S aureus", "setting": "S aureus", "result": ">50", "unit": "µg/mL"},
      {"measurement": "MIC P aeruginosa", "setting": "P aeruginosa", "result": 6.2, "unit": "µg/mL"},
      {"measurement": "MIC E coli", "setting": "E coli", "result": 3.1, "unit": "µg/mL"}
    ]}
  ]
}
